Our source for the IC50 values is ChEMBL document CHEMBL6134818, “Development of 3-arylaminothiophenic-2-carboxylic acid derivatives as new FTO inhibitors showing potent antileukemia activities” (Eur J Med Chem, 2025).

Assay [1] has as its target Alpha-ketoglutarate-dependent dioxygenase FTO (Homo sapiens, UniProt Q9C0B1). The assay can be described thus: Inhibition of N-terminal truncated FTO demethylation (unknown origin) using 5'-ATTGCCATTCTCGATAGG(dm6A)TCCGGTCAAACCTAGACGAA-3' ssDNA template incubated for 2 hrs by PAGE-based assay.
Another assay concerns NB-4. The assay can be described thus: Anti-proliferative activity against human NB4 cells assessed as inhibition of cell viability incubated for 72 hrs by CCK8 assay. Format: functional, cell-based. The settings on record: NB-4, 72 h.
In another assay the test system is MOLM-13. The assay can be described thus: Anti-proliferative activity against human MOLM-13 cells assessed as inhibition of cell viability incubated for 72 hrs by CCK8 assay. Format: functional, cell-based. The note with it: MOLM-13, 72 h. In general terms: Tetrazolium dyes change colour on reduction, which living cells bring about.

Chain of Alpha-ketoglutarate-dependent dioxygenase FTO (Q9C0B1 whole entry, the tested form may be a part): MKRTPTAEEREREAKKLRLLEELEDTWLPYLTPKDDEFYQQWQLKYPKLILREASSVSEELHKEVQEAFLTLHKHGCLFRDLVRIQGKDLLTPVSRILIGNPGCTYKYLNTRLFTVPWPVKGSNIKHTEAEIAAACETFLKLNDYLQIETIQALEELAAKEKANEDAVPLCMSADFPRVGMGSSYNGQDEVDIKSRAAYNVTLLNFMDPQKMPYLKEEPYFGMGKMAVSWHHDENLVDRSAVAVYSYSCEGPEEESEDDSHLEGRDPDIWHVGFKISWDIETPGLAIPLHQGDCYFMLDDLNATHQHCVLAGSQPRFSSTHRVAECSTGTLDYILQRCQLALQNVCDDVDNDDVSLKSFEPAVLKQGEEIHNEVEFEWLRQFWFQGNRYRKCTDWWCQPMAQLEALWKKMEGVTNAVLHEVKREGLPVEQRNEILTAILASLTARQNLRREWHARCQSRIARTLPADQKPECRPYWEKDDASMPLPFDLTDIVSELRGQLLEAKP

Broadly, the IC50 is the concentration that gives 50% inhibition. For `Cc1n[nH]c(C)c1-c1cc(C2CC2)c(Nc2ccsc2C(=O)NC#N)c(C2CC2)c1`, the IC50 in assay [1] was 270 nM.

For the compound `Cc1n[nH]c(C)c1-c1cc(C2CC2)c(Nc2ccsc2C(=O)NO)c(C2CC2)c1`, the IC50 in the assay with NB-4 and in the assay with MOLM-13 was 300 nM each time.

Regarding `Cc1n[nH]c(C)c1-c1cc(Cl)c(Nc2ccsc2C(=O)O)c(Cl)c1`, the IC50 in assay [1] was found to be 680 nM.
